One experiment has as its target T1, Truncated human NIK (Homo sapiens, UniProt Q99558).
T1 construct: made in house; host or cells: Sf9 insect cells (baculovirus)
The experiment in a line: NIK inhibitory activity: SRPKtide phosphorylation with [γ-33P] ATP, filter plate. The settings on record: GST-tagged truncated human NIK, 20 μM peptide substrate, 10 μM ATP, 25° C., 240 minutes. The experiment is classed as biochemical. The text has this: Truncated human NIK [319-947(end) amino acids of accession number AAH35576] was expressed in sf9 cells as N-terminus gluthatione-S-transferase (GST)-tagged protein using baculovirus expression system. The sf9 cells were harvested and lysed, and then the GST-tagged human NIK protein was applied onto a glutathione column (GSTrap, GE Healthcare) and eluted from the column with reduced glutathione. The active fractions were desalted with a desalting column (PD-10, GE Healthcare) to give a purified enzyme.
For measurement of the activity of NIK, the SRPKtide peptide (Arg-Ser-Arg-Ser-Arg-Ser-Arg-Ser-Arg-Ser-Arg-Ser-Arg-Ser-Arg-NH2) (SEQ.ID.NO.:1) was synthesized as a substrate, as described above.
The phosphorylation reaction was conducted using 384 well plate, and the reaction volume was 10.5 μL/well. The reaction buffer is comprised of 10 mM 3-Morpholinopropanesulfonic acid buffer (pH 7.4), 5 mM magnesium chloride, 1 mM O,O′-Bis (2-aminoethyl) ethyleneglycol-N,N,N′,N′-tetraacetic acid (EGTA) and 1 mM dithiothreitol. Thereto, the purified NIK protein, 20 μM of the peptide substrate, 10 μM of adenosine 5′-triphosphate (ATP) and 0.5 μCi [γ-33P] ATP solution were added, and then the reaction was carried out at 25° C. for 240 minutes. The [γ-33P]-labeled ATP was purchased from PerkinElmer Inc.
After the termination of the reaction by adding 20 μL of 350 mM phosphoric acid (H3PO4), the substrate peptide was adsorbed on a filter plate (Millipore Multiscreen, MZPHN0W50). The substrate-bound filter plate was washed with 130 mM phosphoric acid for several times and then 8 μL of Microscinti-O (PerkinElmer Inc.) was added to the each well. The radiation activity of the peptide was measured with TopCount NXT Microscintillation Counter (PerkinElmer Inc.).
The compound to be tested was diluted in dimethylsulfoxide (DMSO) and then 0.5 μL of this solution was added to each well. Each control well was provided by adding 0.5 μL of DMSO to the well in place of the DMSO solution containing the compound to be tested.

Experiment [1] has as its target T2, human ROCK2 catalytic domain (Homo sapiens, UniProt O75116).
T2 construct: made in house; host or cells: Sf9 insect cells
The experiment in a line: ROCK2 inhibitory activity: peptide phosphorylation, IMAP fluorescence polarization. The experiment is classed as biochemical. The settings on record: for IC50: His-tagged human ROCK2, 100 nM peptide substrate, 5 μM ATP, 30° C., 150 minutes; for Selectivity of NIK over ROCK2: IC50 for ROCK2 divided by IC50 for NIK. The text has this: cDNA of N-terminal His-tagged human ROCK2 catalytic domain [11-552 amino acids of accession number NP_00004841.2] was integrated into an expression vector, which was then highly expressed in sf9 cells. The sf9 cells were harvested and lysed, and then the His-tagged human ROCK2 protein was applied onto HisTrap HP (GE Healthcare) and eluted from the column with imidazole. The active fractions were desalted with a desalting column (PD-10, GE Healthcare) to give a purified enzyme.
For measurement of the activity of ROCK2, the substrate used was a synthetic peptide (5-FAM (5-carboxyfluorescein)-Ala-Lys-Arg-Arg-Arg-Leu-Ser-Ser-Leu-Arg-Ala-OH) (SEQ.ID.NO.:2) (Trauger J W. et. al, Biochemistry, 41, 8948-8953 (2002)), which was custom-made by JPT Peptide Technologies GmbH.
For detection of phosphorylation of the substrate, IMAP® technology (Molecular Devices, Co. Ltd.) (Gaudet E W. et. al, J. Biomol. Screen, 8, 164-175(2003)) was used.
The phosphorylation reaction was conducted using 384 well plate, and the reaction volume was 10.5 μL/well. The reaction buffer is comprised of 50 mM Tris-chloride buffer (pH 7.5), 10 mM magnesium acetate, 1 mM O,O′-Bis(2-aminoethyl)ethyleneglycol-N,N,N′,N′-tetraacetic acid (EGTA) and 1 mM dithiothreitol. Thereto, the purified ROCK2 protein, 100 nM of the peptide substrate, and 5 μM of adenosine 5′-triphosphate were added, and then the reaction was carried out at 30° C. for 150 minutes.
Thereafter, in order to terminate and detect the reaction, 30 μL of the IMAP (registered trademark) binding reagent (IMAP Progressive Binding Reagent) that had been diluted (1:500) in the 1× IMAP binding buffer A (IMAP Progressive Binding Buffer A, 5× stock) was added to each well. The solution stood still for 30 minutes in the dark, and then fluorescence polarization was measured using a high-end microplate reader (excitation wavelength: 485 nm; emission wavelength: 520 nm).
The compound to be tested was diluted in dimethylsulfoxide (DMSO) and then 0.5 μL of this solution was added to each well. Each control well was provided by adding 0.5 μL of DMSO to the well in place of the DMSO solution containing the compound to be tested. In Table 3, the selectivity of NIK over ROCK2 was calculated by dividing the value of IC50 for ROCK2 by the value of IC50 for NIK.
On the technique in general: Polarisation of emitted light reports the rotation of a fluorescent probe.

Experiment [2] has as its target T3, human NIK (U-2 OS Tet-On-NIK cells) (Homo sapiens, UniProt Q99558).
T3 construct: expressed in transfected cells; host or cells: U-2 OS Tet-On cells carrying NF-kappa B reporter genes, stably transfected with pTRE2hyg-NIK
The experiment is described as follows: Cellular NIK inhibitory activity using ELISA-based IKKalpha phosphorylation assay. Type of experiment: cell-based. To be noted: NIK dependent IKKalpha phosphorylation, doxycycline 2 micrograms/ml, 24 hours. The method, then:
NF-kappa B reporter genes (Clontech Laboratories, Inc.) was introduced into U-2 OS Tet-On cell line (Clontech Laboratories, Inc.) by the co-transfection with puromycin resistance gene (Clontech Laboratories, Inc.). […] NIK protein expression in this established cells (U-2 OS Tet-On-NIK) was controlled in a doxycycline dependent manner. The cells were cultured in DMEM containing 10% FBS, 100 units/ml of penicillin, 0.1 mg of streptomycin sulfate, 100 microgram/ml of hygromycin and 1 microgram/ml of puromycin (Growth medium).
U-2 OS Tet-On-NIK cells were plated on 96-well plate (Nunc) at 20000 cells per well and were incubated overnight at 37° C. in 5% CO2-95% air. The tested compound was diluted in dimethylsulfoxide (DMSO) and further diluted with a growth medium. Then the compound solution and doxycycline (Clontech Laboratories, Inc.) solution (final working concentration is 2 micrograms/ml) were simultaneously added to the each well. […]
Rabbit anti-IKKalpha [pSpS176/180] phosphospecific antibody (Biosource International, Inc.) or rabbit anti-IKKalpha antibody (Abcam, Inc.) was incubated on wells of an MAXISORP ELISA plate (Nunc) at 4° C. for overnight. […] After stopping HRP-reactions (SureBlue Reserve™ TMB substrate, Kirkegaard & Perry Laboratories, Inc.) by 1N hydrochloric acid, the optical density in each well was determined using a SpectraMax Plus 384 (Molecular Devices Corporation) at 450 nm.
Cellular NIK inhibitory activity of the test compound was represented as IC50 value determined by the following procedure.
Optical density of phospho-IKKalpha in each sample was normalized using the ratio of phospho-IKKalpha to total IKKalpha. The % of Control value was calculated by the following equation. […]
Then the IC50 value for NIK dependent IKKalpha phosphorylation was determined.

T3 sequence (Q99558 whole entry): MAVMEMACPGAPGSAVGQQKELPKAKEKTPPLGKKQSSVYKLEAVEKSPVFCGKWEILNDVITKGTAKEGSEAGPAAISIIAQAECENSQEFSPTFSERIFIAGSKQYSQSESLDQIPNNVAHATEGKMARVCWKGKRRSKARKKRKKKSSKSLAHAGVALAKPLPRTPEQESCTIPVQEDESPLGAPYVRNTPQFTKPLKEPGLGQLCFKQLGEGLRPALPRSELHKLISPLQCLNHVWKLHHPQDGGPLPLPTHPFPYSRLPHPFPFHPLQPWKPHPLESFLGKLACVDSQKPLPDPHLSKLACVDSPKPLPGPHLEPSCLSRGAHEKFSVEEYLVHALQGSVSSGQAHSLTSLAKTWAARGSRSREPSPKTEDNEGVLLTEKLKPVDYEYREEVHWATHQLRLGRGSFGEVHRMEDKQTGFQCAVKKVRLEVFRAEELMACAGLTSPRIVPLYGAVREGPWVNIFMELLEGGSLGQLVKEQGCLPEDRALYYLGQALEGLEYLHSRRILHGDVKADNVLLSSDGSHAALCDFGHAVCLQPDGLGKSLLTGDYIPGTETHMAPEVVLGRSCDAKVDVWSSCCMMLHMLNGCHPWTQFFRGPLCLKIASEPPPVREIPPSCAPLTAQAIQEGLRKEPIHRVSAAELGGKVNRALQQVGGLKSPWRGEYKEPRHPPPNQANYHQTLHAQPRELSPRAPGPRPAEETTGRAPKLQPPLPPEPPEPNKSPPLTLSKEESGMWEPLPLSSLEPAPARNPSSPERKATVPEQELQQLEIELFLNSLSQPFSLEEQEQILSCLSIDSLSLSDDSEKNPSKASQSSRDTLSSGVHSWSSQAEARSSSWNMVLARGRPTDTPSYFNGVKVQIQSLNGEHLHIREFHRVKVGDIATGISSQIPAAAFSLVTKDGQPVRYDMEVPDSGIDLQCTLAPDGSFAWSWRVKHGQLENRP
T1 sequence (Q99558 319-947): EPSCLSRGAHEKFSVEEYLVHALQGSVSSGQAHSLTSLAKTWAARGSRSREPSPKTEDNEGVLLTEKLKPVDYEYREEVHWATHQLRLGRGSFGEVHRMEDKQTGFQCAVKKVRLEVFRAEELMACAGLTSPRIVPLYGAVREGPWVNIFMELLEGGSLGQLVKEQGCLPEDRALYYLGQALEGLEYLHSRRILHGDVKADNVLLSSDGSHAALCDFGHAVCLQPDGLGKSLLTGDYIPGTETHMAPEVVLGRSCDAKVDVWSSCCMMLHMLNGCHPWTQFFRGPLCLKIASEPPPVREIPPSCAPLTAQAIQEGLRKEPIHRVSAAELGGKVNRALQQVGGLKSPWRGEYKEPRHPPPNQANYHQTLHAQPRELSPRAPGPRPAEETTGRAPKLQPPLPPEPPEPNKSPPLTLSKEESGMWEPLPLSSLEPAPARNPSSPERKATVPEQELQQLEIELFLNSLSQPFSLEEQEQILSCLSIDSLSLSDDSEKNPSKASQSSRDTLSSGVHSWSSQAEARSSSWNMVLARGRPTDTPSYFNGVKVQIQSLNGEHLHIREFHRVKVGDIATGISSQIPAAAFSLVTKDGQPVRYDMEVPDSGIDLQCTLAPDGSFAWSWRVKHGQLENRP
T2 sequence (O75116 11-552): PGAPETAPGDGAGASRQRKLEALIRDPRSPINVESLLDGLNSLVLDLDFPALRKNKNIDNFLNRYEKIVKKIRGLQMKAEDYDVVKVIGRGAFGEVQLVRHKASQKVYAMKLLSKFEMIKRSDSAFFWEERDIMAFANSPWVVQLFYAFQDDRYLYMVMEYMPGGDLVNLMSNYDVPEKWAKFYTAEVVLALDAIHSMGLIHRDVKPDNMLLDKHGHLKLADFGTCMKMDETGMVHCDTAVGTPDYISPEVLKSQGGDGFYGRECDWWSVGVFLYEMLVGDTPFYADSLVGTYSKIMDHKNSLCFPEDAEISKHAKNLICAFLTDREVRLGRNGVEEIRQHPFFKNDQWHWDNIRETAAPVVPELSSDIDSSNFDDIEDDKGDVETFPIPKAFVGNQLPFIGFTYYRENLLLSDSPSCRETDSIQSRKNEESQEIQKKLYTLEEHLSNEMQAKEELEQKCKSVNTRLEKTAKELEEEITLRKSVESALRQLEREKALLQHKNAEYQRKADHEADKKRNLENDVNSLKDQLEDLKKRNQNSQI

For the compound `CC(C)n1cc(-c2ccnc(Nc3ccccc3)n2)c2ccncc21` [Example 3, [4-(1-Isopropyl-1H-pyrrolo[2,3-c]pyridin-3-yl)-pyrimidin-2-yl]-phenyl-amine], at Truncated human NIK, half-maximal inhibition (IC50) was put at 423 nM. In experiment [1], 86 nM corresponded to half-maximal inhibition (IC50) and the “Selectivity of NIK over ROCK2” value is given as 0.20.
Turning to `Cc1ccc(C(N)=O)cc1Nc1nccc(-c2cn(C(C)C)c3cnccc23)n1` [Example 85, 3-[4-(1-Isopropyl-1H-pyrrolo[2,3-c]pyridin-3-yl)-pyrimidin-2-ylamino]-4-methyl-benzamide], the IC50 (as a rule, the midpoint of a concentration-inhibition curve) in experiment [2] was determined as 140 nM; on Truncated human NIK, 63.4 nM; in experiment [1] it was 2590 nM. The “Selectivity of NIK over ROCK2” value in experiment [1] is listed as 40.9.
Taken in the same sequence, the figures for `CNC(=O)c1ccc(OC)c(Nc2nccc(-c3cn(C(C)C)c4cnccc34)n2)c1` [Example 71, 3-[4-(1-Isopropyl-1H-pyrrolo[2,3-c]pyridin-3-yl)-pyrimidin-2-ylamino]-4-methoxy-N-methyl-benzamide] were 200 nM, 26.1 nM, 4520 nM and 173.3.
The like results for `CC(C)n1cc(-c2ccnc(Nc3cc(C(N)=O)ccc3OCc3ccccc3)n2)c2ccncc21` [Example 94, 4-Benzyloxy-3-[4-(1-isopropyl-1H-pyrrolo[2,3-c]pyridin-3-yl)-pyrimidin-2-ylamino]-benzamide] were, in that order, 230 nM, 84.5 nM, 1010 nM and 11.9.

The values are drawn from patent US20110183975A1, “NOVEL 6-AZAINDOLE AMINOPYRIMIDINE DERIVATIVES HAVING NIK INHIBITORY ACTIVITY” (priority 2008, published 2011).
